In paper PMC8247401, “Evaluation of clinical and genetic factors in the population pharmacokinetics of carbamazepine” (British Journal of Clinical Pharmacology, 2020):
Like-named read-outs stand apart in the source and are kept apart here.

Legend:
[1] = Population PK model (NONMEM) of plasma CBZ and 3 metabolites after oral CBZ; details: for effect of concomitant treatment as covariate on CBZ clearance/metabolism: categorical covariate on CLTOT in the population PK model, small numbers of subjects; for % Interindividual variability of V2: V2 shared by the 3 metabolites; for clearance: human, plasma, oral; for V2, volume of distribution of metabolites: same V2 estimated for CBZE, 2OH-CBZ and 3OH-CBZ, apparent
[2] = test system: microsomal epoxide hydrolase; details: concurrent brivaracetam therapy in patients on CBZ; cited from earlier work
[3] = set-up: method as in PMID 6491988; details: fixed, not estimated; CL2 (to CBZE)=CLTOT*(1-FM1), CL3=CL4=CLTOT*FM1/2; cited from earlier work
[4] = cited from earlier work
[5] = set-up: method as in PMID 17382827; details: patients treated with CBZ, cited from earlier work
[6] = 70-kg patient prescribed 400 mg CBZ; model assumes 0.65 of CBZ converted to CBZE; cited from earlier work
[7] = final model, log-normal distribution

Q: For NC(=O)OCC(COC(N)=O)c1ccccc1 [felbamate], which “effect of concomitant treatment as covariate on CBZ clearance/metabolism” value (shortened to “effect … on CBZ clearance/metabolism”) [1] is on record?
A: None of those antiepileptic drugs (AEDs) achieved a significant effect

Q: What does the source list for CCC[C@@H]1CC(=O)N([C@@H](CC)C(N)=O)C1 [Brivaracetam]?
A: rise in CBZE levels, median [2]: 83.9%; rise in CBZE levels, range [2]: 57.9–341.7%

Q: For NC(=O)N1c2ccccc2C=Cc2cc(O)ccc21 [2OH‐CBZ, 2‐hydroxycarbamazepine], which “% Interindividual variability of CL3E” value [1, 7] is on record?
A: 42.3%

Q: And the “% Interindividual variability of V2” value [1, 7]?
A: 149.7%

Q: And the clearance [1]?
A: 12100 mL/min

Q: What about the CL3E induction effect ([1]; multiplier (fold) on CL3E for induced period vs non-induced) of the same compound?
A: 1.63

Q: What about the “V2, volume of distribution of metabolites” value (from here on “V2, volume”) ([1]; population mean) of the same compound?
A: 39.2 L

Q: With COc1ccc2[nH]c([S+]([O-])Cc3ncc(C)c(OC)c3C)nc2c1 (stereo not shown) [omeprazole] as the compound, how does the “effect … on CBZ clearance/metabolism” value [1] read?
A: Neither was found to affect metabolism of CBZ significantly

Q: With NC(=O)N1c2ccccc2C=Cc2ccccc21 [CBZ, Carbamazepine] as the compound, how does the “FM1 (metabolite fraction)” value [3] read?
A: 0.64

Q: What about the “fraction of CBZ converted to CBZE assumed in this model” value [4] of the same compound?
A: 0.36

Q: And the “parent CBZ primarily converted to CBZE” value ([4]; prior mass balance information)?
A: 36%

Q: What about the “fraction of CBZ converted to CBZE assumed in the model of Jiao et al.” value ([4]; ref Jiao et al. (58)) of the same compound?
A: 0.65

Q: And the “patients experiencing a hypersensitivity reaction” value [5]?
A: up to 10%

Q: And the “patients experiencing a hypersensitivity reaction” value ([5]; listed as Carbamazepine)?
A: ~ 10%

Q: And the “% Interindividual variability of CLTOT” value [1, 7]?
A: 25.3%

Q: What about the “% Interindividual variability of FM1” value [1, 7] of the same compound?
A: 6.3%

Q: And the “% Interindividual variability of KASTAR” value [1, 7]?
A: 75.3%

Q: What about the “% Interindividual variability of V1” value [1, 7] of the same compound?
A: 13.6%

Q: And the “V1, central distribution volume of CBZ” value ([1]; population mean, final model, apparent (V/F))?
A: 161 L

Q: What about the “CLTOT, total clearance of CBZ” value ([1]; population mean, final model, oral dosing, apparent (CL/F), typical value non-induced, 400 mg daily dose, no phenytoin) of the same compound?
A: 1.96 L/h

Q: And the KASTAR ([1]; population mean, absorption rate constant KA=CLTOT/V1+KAstar)?
A: 0.409 h⁻¹

Q: Which “% Interindividual variability of CL4E” value [1, 7] does the source give for NC(=O)N1c2ccccc2C=Cc2ccc(O)cc21 [3OH‐CBZ, 3‐hydroxycarbamazepine] here?
A: 34.5%

Q: And the “% Interindividual variability of V2” value [1, 7]?
A: 149.7%

Q: What about the clearance [1] of the same compound?
A: 9050 mL/min

Q: And the “V2, volume” value ([1]; population mean)?
A: 39.2 L

Q: Which “effect … on CBZ clearance/metabolism” value [1] does the source give for CCC1(c2ccccc2)C(=O)NC(=O)NC1=O [phenobarbital] here?
A: None of those antiepileptic drugs (AEDs) achieved a significant effect

Q: With NC(=O)N1c2ccccc2C2OC2c2ccccc21 (stereo not shown) [CBZE, carbamazepine 10,11‐epoxide] as the compound, how does the “CL estimate for CBZE in a previous population PK model” value [6] read?
A: 28 L/h

Q: And the “reduction of clearance of CBZE” value ([1]; EPHX1-416G/G genotype (3 subjects) compared with EPHX1-416G/A and -416A/A)?
A: approximately 50%

Q: And the “% Interindividual variability of CL2E” value [1, 7]?
A: 27.9%

Q: What about the “% Interindividual variability of V2” value [1, 7] of the same compound?
A: 149.7%

Q: What about the clearance [1] of the same compound?
A: 162 mL/min

Q: And the “Cov.Eff.(EPHXAGHOM on CL2E)” value ([1]; multiplier on CBZE clearance in EPHX1-416G/G homozygotes (n=3) vs G/A and A/A)?
A: 0.502

Q: And the “V2, volume” value ([1]; population mean)?
A: 39.2 L
